Columns and labels:
[1] = tested on: NIL B, SV-NIL and BALB/C 3T3 cells; experiment: effectiveness as cell and tissue culture buffers (overall, cell lines tested); conditions: selected media; for effectiveness as culture buffer compared with HEPES: vs HEPES; for effectiveness as culture buffer compared with NaHCO3:CO2 system (control): vs NaHCO3:CO2 control
Experimental: The cell lines used in the tests were NIL B, a hamster fibroblast line; SV-NIL, an SV40-virus transformed line derived from NIL B; and BALB/C 3T3, a mouse embryo tissue. The cells were seeded into T-flasks (screw-capped polystyrene flasks) with a 25 cm^2 area. On the control flask (CO2 atmosphere), the cap was kept loose to allow gas circulation while the caps on the experimental culture flasks were screwed on tightly. The medium used in these tests was Eagle's MEM 4X (see pages 108-112 of Paul, Cell and Tissue Culture, 5th Edition, 1975), in an Earle's salt solution (page 95 of same text) modified to contain 2.2 g/l of bicarbonate for the experimental buffers. The control was not so modified. The control flask was incubated at 37° C. in an atmosphere of 5% CO2 in air whereas the other flasks were incubated at 37° C. in an air atmosphere. The medium was changed every other day.
At appointed times, triplicate flasks were harvested using trypsin, and the approximate cell population was determined using a Coulter electronic particle counter.

[2] = solubility of the zwitterion on acidification; format: physicochemical; conditions: acidified to pH 1.5 with HCl, water
[3] = use as buffer in biological research; cited from earlier work
[4] = cited from earlier work

SMILES	effectiveness as culture buffer compared with HEPES [1]	effectiveness as culture buffer compared with NaHCO3:CO2 system (control) [1]	further results
O=S(=O)(O)CC(O)CN1CCN(CCO)CC1 (centres unmarked) [Example 3, N-hydroxyethyl piperazine-N'-2 hydroxypropyl sulfonic acid]	as good as, if not better than	as good as, if not better than	–
O=S(=O)(O)CC(O)CN1CCN(CC(O)CS(=O)(=O)O)CC1 (centres unmarked) [Example 4, Piperazine-N,N'-2-hydroxypropyl sulfonic acid (dihydrate)]	–	–	solubility [2]: very insoluble
O=S(=O)(O)CC(O)CN1CCOCC1 (centres unmarked) [Example 6, 3-(N-morpholino)-2-hydroxypropyl sulfonic acid]	about as good as	not as good as	–
NC(CO)(CO)CO [Tris, tris-(hydroxy-methyl)aminomethane]	–	–	inhibitory side effect [3]: often inhibitory; buffering capacity ([4]; below pH 7.5): poor buffering capacity; reactivity ([4]; primary aliphatic amine): considerable reactivity
